{"source": "patent US20050129680A1", "about": "“Antimicrobial activity of antibodies” (priority 2001, published 2005)", "molecules": {"B1": {"name": "RNase A: ribonuclease, no Trp residues, several disulfide bonds (protein, UniProt P61823 27-150, looked up)", "Ribonuclease pancreatic": "KETAAAKFERQHMDSSTSAASSSNYCNQMMKSRNLTKDRCKPVNTFVHESLADVQAVCSQKNVACKNGQTNCYQSYSTMSITDCRETGSSKYPNCAYKTTQANKHIIVACEGNPYVPVHFDASV"}, "B2": {"name": "chick ovalbumin: chick-egg ovalbumin (protein, UniProt P01012 2-386, looked up)", "Ovalbumin": "GSIGAASMEFCFDVFKELKVHHANENIFYCPIAIMSALAMVYLGAKDSTRTQINKVVRFDKLPGFGDSIEAQCGTSVNVHSSLRDILNQITKPNDVYSFSLASRLYAEERYPILPEYLQCVKELYRGGLEPINFQTAADQARELINSWVESQTNGIIRNVLQPSSVDSQTAMVLVNAIVFKGLWEKAFKDEDTQAMPFRVTEQESKPVQMMYQIGLFRVASMASEKMKILELPFASGTMSMLVLLPDEVSGLEQLESIINFEKLTEWTSSNVMEERKIKVYLPRMKMEEKYNLTSVLMAMGITDVFSSSANLSGISSAESLKISQAVHAAHAEINEAGREVVGSAEAGVDAASVSEEFRADHPFLFCIKHIATNAVLFFGRCVSP"}}, "key": {"[1]": {"assay": "Decomposition of O3 under aqueous conditions", "type": "physicochemical", "conditions": "PBS pH 7.4, 22° C.", "protocol": "The rate of decomposition of O3 under the aqueous conditions employed was measured by the following method. Ozone, produced by a passage of O2 through a Polymetrics ozonizer, was bubbled for 2 min through a phosphate buffered saline (PBS, pH 7.4) solution in a quartz cuvette (1 cm^2) at room temperature. The time-dependent change in optical density was then measured at 260 nm (ε=2,700 M^−[…]) for at least 5 half lives in a Hitachi u.v./vis spectrophotometer equipped with a thermostatted rack at 22° C. See Takeuchi et al., Anal. Chim. Acta. 230, 183 (1990). […] The sensitivity of the assay was limited by spectrophotometer accuracy to ±0.1% (˜1 μM) of the OD at t=0."}, "[2]": {"assay": "Antibody/protein UV irradiation with Amplex Red quantitative assay for hydrogen peroxide", "type": "biochemical", "conditions": "for reduction of ^1O2 (panel of other proteins): UV irradiation, PBS", "protocol": "Aliquots (10 μL) were removed at timed intervals throughout the assay. H2O2 concentration was determined by the amplex red method. Each data point is reported as the mean±SEM of at least duplicate measurements: ? polyclonal (poly) immunoglobulin (Ig) G, human; O poly-IgG, horse; ? poly-IgG, sheep; ∇ monoclonal (m) IgG (WD1-6G6), murine; ? poly-IgM, human; ? mIgG (92H2), murine; ¦ β-galactosidase (β-gal); ? chick ovalbumin (OVA); ? a-lactalbumin (a-lact); ? bovine serum albumin (BSA).\nAntibody/Protein Irradiation.\nQuantitative Assay for Hydrogen Peroxide. An aliquot (20 μl) from the protein solution was removed and added into a well of a 96-well microtiter plate (Costar) containing reaction buffer (80 μl). Working solution (100 μl/400 μM Amplex Red reagent 1/2 units/ml horseradish peroxidase) was then added, and the plate was incubated in the dark for 30 min. The fluorescence of the well components was then measured using a CytoFluor Multiwell Plate Reader (Series 4000, PerSeptive Biosystems, Framingham, Mass.; Ex/Em: 530/580 nm). The hydrogen peroxide concentration was determined using a standard curve. All experiments were run in duplicate, and the rate is quoted as the mean of at least two measurements.\nA suspension of crystals of the Fab fragment of 1D4 (2 μl) was diluted with PBS (198 μl, pH 7.4) and vortexed gently. Following centrifugation, the supernatant was removed, and the washing procedure was repeated twice further. The residual crystal suspension was then diluted into PBS, pH 7.4 (100 μl), and added into a well of a quartz ELISA plate. Following UV irradiation for 30 min, Amplex Red working solution (100 μl) was added, and the mixture was viewed on a fluorescence microscope.\nDenaturation. […] The resultant solution was transferred to a glass, screw-cap vial and irradiated with UV light for 30 min. The concentration of H2O2 was determined after 30 min."}, "E. coli": {"system": "E. coli", "assay": "Bactericidal assay (CFU recovery), strain not singled out", "type": "cell-based", "conditions": "40 μM, white light 2.7 mW cm^−2, 1 h, PBS, 4±1° C.", "protocol": "(§1) In a typical experiment, a culture of E. coli (in log phase growth, OD600=0.2-0.3) was repeatedly pelleted (3×3,500 rpm) and resuspended in PBS (pH 7.4). The PBS suspended cells were then added to glass vials and cooled to 4° C. […] Viability was determined by recovery of colony forming units (CFUs) on agar plates. Each experiment was performed at least in duplicate.\nas §1, with “washed in PBS by pelleting” for “pelleted”, “rpm) the cells” for “rpm)”, “resuspending them” for “resuspended”"}, "horse poly-IgG": {"system": "horse poly-IgG", "conditions": "read-out: IC50 of H2O2 on the photo-production of H2O2 by horse poly-IgG; horse IgG 6.7 μM, H2O2 0-450 μM, near-UV", "protocol": "Such a graph permits determination of the IC50 of H2O2 on the photo-production of H2O2 by horse poly-IgG. A solution of horse IgG (6.7 μM) was incubated with varying concentrations of H2O2 (0-450 μM) and the initial rate of H2O2 formation measured as described in FIG. 8A."}, "E. coli XL1-blue": {"system": "E. coli XL1-blue", "assay": "Bactericidal assay (CFU recovery)", "type": "cell-based", "conditions": "catalase 13 mU/mL", "protocol": "(§2) In a typical experiment, a culture of E. coli (in log phase growth, OD600=0.2-0.3) was repeatedly pelleted (3×3,500 rpm) and resuspended in PBS (pH 7.4). The PBS suspended cells were then added to glass vials and cooled to 4° C. Hematoporphyrin IX (40 μM) and antibody (20 μM) were added and the vials were either placed on a light box (visible light, 2.8 mW cm^−2) or in the dark at 4° C. and incubated for 1 h. Viability was determined by recovery of colony forming units (CFUs) on agar plates. Each experiment was performed at least in duplicate.\nas §2, with “washed in PBS by pelleting” for “pelleted”, “rpm) the cells” for “rpm)”, “resuspending them” for “resuspended”"}}, "note": "Where “and” joins values, the source holds several entries; their conditions need not be identical. Equal entries are not always repeated.", "data": [{"molecule": "O=[O+][O-]", "note": "[Clone O3, ozone]", "values": [{"measurement": "half-life (t1/2) under aqueous conditions", "setting": "[1]", "result": 1.1, "unit": "min"}]}, {"molecule": "β-galactosidase", "values": [{"measurement": "H2O2 generated during near-UV irradiation", "setting": "[2]; near-UV irradiation, 6.7 μM", "result": 5.9, "unit": "mol eq."}]}, {"molecule": "CC1=C(CCC(=O)O)c2cc3[nH]c(cc4nc(cc5[nH]c(cc1n2)c(C)c5C(C)O)C(C)=C4C(C)O)c(C)c3CCC(=O)O", "note": "(centres unmarked) [hematoporphyrin IX]", "values": [{"measurement": "bactericidal activity of sensitizer alone", "setting": "E. coli", "result": "negligible bactericidal activity"}]}, {"molecule": "N[C@@H](Cc1c[nH]c2ccccc12)C(=O)O", "note": "[tryptophan]", "values": [{"measurement": "H2O2 produced during near-UV photo-oxidation", "setting": "[2]; near-UV irradiation, 20 μM", "result": "ca. 0.5 mole equivalents"}]}, {"molecule": "OO", "note": "[Clone H2O2, hydrogen peroxide]", "values": [{"measurement": "IC50", "setting": "horse poly-IgG", "result": "~225 µM and 225 µM"}]}, {"molecule": "catalase", "values": [{"measurement": "protection against the bactericidal activity of non-specific antibodies", "setting": "E. coli XL1-blue", "result": "complete protection"}]}, {"molecule": "B1", "values": [{"measurement": "reduction of ^1O2 (panel of other proteins)", "setting": "[2]", "result": "do not reduce"}]}, {"molecule": "B2", "values": [{"measurement": "reduction of ^1O2 (panel of other proteins)", "setting": "[2]", "result": "one of the most efficient proteins"}]}]}
